# Test results taken from patent US10111877B2, “Modulators of androgen synthesis” (Tangent Reprofiling Limited, priority 2012, dated 2018).
# Assays:
# Assay type in all cases: cell-based
# VERO cells = experiment: Cell growth inhibition, lysed cell LDH assay, non-cancerous cell line;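 as to effect on growth of cells from the non-cancerous cell line VERO: 100% is cells receiving no drug treatment and 0% is wells without cells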
# Experimental: To determine whether Risperidone could be effective in inhibiting growth of cancer cells overexpressing HSD10, a lysed cell LDH assay was conducted using cells taken from a prostate cancer cell line, a lung cancer cell line, a breast cancer cell line, an ovarian cancer cell line, each of which was known to overexpress HSD10, and a non-cancerous cell line.
# After incubation in the drug treatment for 96 hours at 37° C., 5% CO2, the supernatant was removed from all wells of cells, and cells washed with 200 μL PBS.
# (§1) After removal of the PBS from the cell cultures described above, cell number was determined using a lysed cell LDH assay. Cells were lysed with 0.9% Triton-X in PBS for 2 hours at 37° C., 5% CO2 and 50 μL of this cell lysate was transferred to a fresh 96 well plate. About 50 μL of CytoTox 96 assay reagent was added to the transferred cell lysate and this mixture was incubated at room temperature in the dark for 20 minutes. After the addition of 50 μL stop reagent, the optical absorbance was determined for each incubated mixture at 492 nm. […] The mean and standard error was calculated from at least 3 wells.
# A549 cells = experiment: Cell growth inhibition, lysed cell LDH assay, lung cancer cell line; settings: A549; 50 μM Risperidone and/or 50 μM CLA, 1 μM Testosterone (T) where added; 96 hours
# Experimental: To determine whether Risperidone alone, or in combination with CLA could inhibit cell growth of cells taken from a lung cancer cell line overexpressing HSD10, A549 cells were seeded at a density of 2,000 cells per well in a 96 well plate, and incubated at 37° C., 5% CO2 for 48 hours in standard growth media (DMEM nutrient media, 10% Fetal Calf Serum, 2 mM L-Glutamine). The media was then removed by pipette and replaced with the appropriate drug treatment as follows: 50 μM Risperidone in A459 treatment media (DMEM nutrient media, 125 uM fatty acid free BSA, 2 mM L-Glutamine); 50 μM CLA in A459 treatment media; 50 μM Risperidone and 50 μM CLA in A459 treatment media; 50 μM Risperidone and 1 μM Testosterone in A459 treatment media; 50 μM Risperidone, 50 μM CLA, and 1 μM Testosterone in A459 treatment media. After incubation in the drug treatment for 96 hours at 37° C., 5% CO2, the supernatant was removed from all wells of cells, and cells washed with 200 μL PBS.
# After removal of the PBS from the cell cultures described above, cell number was determined using a lysed cell LDH assay. Cells were lysed with 0.9% Triton-X in PBS for 2 hours at 37° C., 5% CO2 and 50 μL of this cell lysate was transferred to a fresh 96 well plate. About 50 μL of CytoTox 96 assay reagent was added to the transferred cell lysate and this mixture was incubated at room temperature in the dark for 20 minutes. After the addition of 50 μL stop reagent, the optical absorbance was determined for each incubated mixture at 492 nm. The percentage cell number was calculated by normalizing the experimental counts, where 100% is set to cells receiving no drug treatment, and 0% is set to readings from wells containing no cells. The mean and standard error was calculated from at least 3 wells.
# PC3 cells = experiment: Cell growth inhibition, lysed cell LDH assay, prostate cancer cell line;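 also: 100% is cells receiving no drug treatment and 0% is wells without cells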
# Experimental: To determine whether Risperidone could be effective in inhibiting growth of cancer cells overexpressing HSD10, a lysed cell LDH assay was conducted using cells from a PC3 cell line.
# PC3 cells are from a cell line derived from a hormone refractory prostate cancer and are known to overexpress HSD10. […] Cells line tests were carried out in presence and absence of testosterone for comparison. After incubation in the drug treatment for 96 hours at 37° C., 5% CO2, the supernatant was removed from all wells of cells, and cells washed with 200 μL PBS.
# as §1, with “PBS,” for “PBS from the cell cultures described above,”, “assay (CytoTox 96 Non-radioactive cytotoxicity assay (LDH Assay); Promega, Co., Madison Wis.).” for “assay.”
# To determine the optimal concentration of Risperidone and CLA necessary to inhibit cell growth, a lysed cell LDH assay was conducted using various concentration of Risperidone and CLA. PC3 cells were cultured and a lysed cell LDH assay was conducted as described above, except that the various drug treatments evaluated contained either 0 μM, 12.5 μM, 25 μM, or 50 μM Risperidone in combination with 0 μM, 6.25 μM, 12.5 μM, 25 μM, 50 μM, or 100 μM CLA (see Table 3).
# as §1
compound,measurement,setting,value
"CCCCCC/C=C/C=C\CCCCCCCC(=O)O [CLA, 9Z, 11E conjugated Linoleic acid]",effect on growth of cells from the non-cancerous cell line VERO,VERO cells; 50 μM,neither Risperidone nor CLA had any measurable effect
same,Percentage of Lysed Cells,"VERO cells; VERO, 50 μM Risperidone and/or 50 μM CLA, 1 μM Testosterone (T) where added, 96 hours",98 ± 2.7%
same,Percentage of Lysed Cells,A549 cells,4.5 ± 0.3%
same,Percentage of Lysed Cells,"PC3 cells; 0 μM Risperidone, 6.25 μM CLA (Table 4)",96 ± 0.7%
same,Percentage of Lysed Cells,"PC3 cells; 0 μM Risperidone, 12.5 μM CLA (Table 4)",90 ± 2.7%
same,Percentage of Lysed Cells,"PC3 cells; 0 μM Risperidone, 25 μM CLA (Table 4)",112 ± 9.5%
same,Percentage of Lysed Cells,"PC3 cells; 0 μM Risperidone, 50 μM CLA (Table 4)",103 ± 9.3%
same,Percentage of Lysed Cells,"PC3 cells; 0 μM Risperidone, 100 μM CLA (Table 4)",66 ± 11.8%
same,Percentage of Lysed Cells,"PC3 cells; 12.5 μM of each drug, 96 hours, 100% = no drug treatment (Table 3)",109 ± 0.56%
same,Percentage of Lysed Cells,"PC3 cells; 25 μM of each drug, 96 hours, 100% = no drug treatment (Table 3)",112 ± 1.1%
same,growth inhibition of PC3 cells,PC3 cells; 50 μM,no effect alone
same,Percentage of Lysed Cells,"PC3 cells; 50 μM of each drug, 96 hours, 100% = no drug treatment (Table 3)",107 ± 2.4%
same,Percentage of Lysed Cells,"PC3 cells; PC3, 50 μM Risperidone and/or 50 μM CLA, 1 μM Testosterone (T) where added, 96 hours (Table 5)",107 ± 2.4%
